The record followed here is patent publication US4442106A, “Quinoline derivatives, pharmaceutical compositions containing such compounds, and methods of treating cardiovascular conditions with them” (ACF Chemiefarma N.V., priority 1980, dated 1984).

Like-named read-outs stand apart in the source and are kept apart here.

Data set [1] relates to spontaneously hypertensive rats. The data set is described as follows: Effectiveness in spontaneously hypertensive rats: systolic blood pressure by tail cuff method. The class given is in vivo. The conditions noted are these: Rattus norvegicus, read-out: Change of systolic blood-pressures. The method, then:
Experiment 1-Effectiveness of the compounds of Examples in spontaneously hypertensive rats
Systolic blood pressures were recorded by a modification of the tail cuff method described by I.M. Claxton et al., Eur. J.Pharmacology 37, 179 (1976). An oscilloscope or W+W BP recorder, model 8002, was used to display pulses.
Prior to all measurements rats were placed in a heated environment (33.5±0.5° C.) before transfer to a restraining cage. Each determination of blood pressure was the mean of at least 6 readings.
Spontaneously hypertensive rats (aged 12-18 weeks) with systolic blood pressures >170 mm Hg were considered hypertensive.
In the following table the results with certain compounds of the invention, which have been carried out with the above-described method, are mentioned. The numbers of the compounds correspond with those of the Examples.

Data set [2] deals with right ventricle of the heart. The data set is described as follows: Guinea Pigs Electrostimulation Test (arrhythmias by electrostimulation of the right ventricle of the heart). The class given is in vivo. The conditions noted are these: Cavia porcellus, 0.5 h, 30 minutes before stimulation, read-out: Percent increase in voltage required for arrhythmia; for change in vivo at 32 mg/kg: standard dose 32 mg/kg intraduodenal. How it is done: Experiment 2-Effectiveness of the compounds of Examples in the Guinea Pigs Electrostimulation Test
Arrhythmias are induced in guinea pigs by electrostimulation of the right ventricle of the heart. The animals are anaesthesized with urethane (1.2 g/kg i.p.) and artificially respirated before a needle electrode is inserted in the right ventricle of the heart. Substances are given intraduodinally 30 minutes before the stimulation at a standard dose of 32 mg/kg. In some cases a different dose was used as indicated.
The voltage needed for induction of extra systoles in control animals (n=6) is compared with that required for induction of arrhythmias in treated animals (n=6).
This method is based on the work of L. Szekeres and G. J. Papp, Naunyn-Schmiedebergs Arch. Exp. Path. Pharmak., 245, 70 (1963).
In the table the results of certain compounds of the invention are mentioned, which have been carried out according to the method described above.
The numbers of the compounds correspond with those of the Examples.

Data set [3] can be described thus: LD50 in mice. The conditions noted are these: mouse, in vivo.

Take `CCCN1CC[C@@H](CCC(=O)c2cc(C)nc3ccccc23)[C@@H](CC)C1` [Compound 26, N-propyl-2'-methyl-hydrocinchonicine]: the change in vivo at 10 mg/kg in data set [1] (1 h) is 0%; in data set [1] (2 h) it was 3%; in data set [1] (4 h) it was -5%; in data set [1] (6 h) it was -7%. For the same compound, in data set [2], the change in vivo at 32 mg/kg worked out at 24%. Moreover, in data set [3], the LD50 (in general, the dose expected to kill half of the subjects tested) turned out to be 500 mg/kg.
As to `CCCN1CC[C@@H](CCC(O)c2cc(C)nc3ccccc23)[C@@H](CC)C1` (some centres unmarked) [Compound 38, N-propyl-2'-methyl-hydrocinchonicinol-1], the change in vivo at 10 mg/kg in data set [1] (1 h) is 1%; in data set [1] (2 h) it was 0%; in data set [1] (4 h), -3%; in data set [1] (6 h) it was -4%; in data set [1] (24 h), 0%. Further, in data set [2] (at 16 mg/kg, intraduodenal), the change in vivo at 16 mg/kg was found to be 31%.
For `CC[C@H]1CN(CCCC(=O)c2ccc(F)cc2)CC[C@H]1CCC(O)c1cc(C)nc2ccccc12` (some centres unmarked) [Compound 39, N-[3-(4-fluorobenzoyl)propyl]-2'-methyl-hydrocinchonicinol-1], the change in vivo at 1 mg/kg in data set [1] (1 h) was -16%; in data set [1] (2 h), -24%; in data set [1] (4 h) it was -26%; in data set [1] (6 h), -23%; in data set [1] (24 h) it was -1%. Further, the change in vivo at 32 mg/kg in data set [2] was 5%.
Turning to `CCCc1cc(C(O)CC[C@@H]2CCN(CCC)C[C@@H]2CC)c2ccccc2n1` (some centres unmarked) [Compound 41, N-propyl-2'-propyl-hydrocinchonicinol-1], the change in vivo at 10 mg/kg was -6% in data set [1] (1 h); -11% in data set [1] (2 h); -15% in data set [1] (4 h); -17% in data set [1] (6 h); 3% in data set [1] (24 h). For the same compound, the change in vivo at 8 mg/kg in data set [2] (intraduodenal) was determined as 101%.
For `CCCN1CC[C@@H](CCCc2cc(C)nc3ccccc23)[C@@H](CC)C1` [Compound 43, 2'-Methyl-N-propyl-desoxo-hydrocinchonicine.bioxalate], the change in vivo at 100 mg/kg in data set [1] (1 h) was -1%; in data set [1] (2 h) it was -12%; in data set [1] (4 h) it was -28%; in data set [1] (24 h), -15%. In data set [2], the change in vivo at 32 mg/kg amounted to 9%.
On to `CCCOc1cc(C(=O)CC[C@@H]2CCN(C)C[C@@H]2CC)c2ccccc2n1` [Compound 51, N-methyl-2'-propoxy-hydrocinchonicine.bioxalate], for which the change in vivo at 3 mg/kg in data set [1] (1 h) is -1%; in data set [1] (2 h) it was 0%; in data set [1] (4 h), -7%; in data set [1] (6 h), -13%; in data set [1] (24 h) it was -1%. The change in vivo at 32 mg/kg in data set [2] is -5%.
Consider `CC[C@H]1CN(CCCC(=O)c2ccccc2)CC[C@H]1CC(O)Cc1cc(OC)nc2ccccc12` (some centres unmarked) [Compound 54, N-(3-benzoylpropyl)-2'-methoxy-hydrocinchonicinol-2], for which the change in vivo at 10 mg/kg was -17% in data set [1] (1 h); -1% in data set [1] (2 h); -16% in data set [1] (4 h); -16% in data set [1] (6 h); 7% in data set [1] (24 h). In addition, the change in vivo at 32 mg/kg in data set [2] is 16%.
For the compound `CCCCCN1CC[C@@H](CC(O)Cc2cc(C(F)(F)F)nc3ccccc23)[C@@H](CC)C1` (some centres unmarked) [Compound 61], the change in vivo at 10 mg/kg was -8% in data set [1] (1 h); -10% in data set [1] (2 h); -13% in data set [1] (4 h); -12% in data set [1] (6 h); -7% in data set [1] (24 h). The change in vivo at 8 mg/kg in data set [2] (intraduodenal) amounted to 11%.
On to `CCCN1CC[C@@H](CC(=O)Cc2cc(OC)nc3ccccc23)[C@@H](CC)C1` [Compound 63, 1-(2-Methoxy-4-quinolyl)-3-[3(R)-ethyl-N-propyl-4(S)-piperidyl]-propanone-2.bioxalate], for which the change in vivo at 10 mg/kg was -1% in data set [1] (1 h); 1% in data set [1] (2 h); -4% in data set [1] (4 h); -3% in data set [1] (6 h); -6% in data set [1] (24 h). In addition, the change in vivo at 4 mg/kg in data set [2] (at 4 mg/kg, intraduodenal) was 12%.
